Publication PMC11311998, “AR71, Histamine H3 Receptor Ligand—In Vitro and In Vivo Evaluation (Anti-Inflammatory Activity, Metabolic Stability, Toxicity, and Analgesic Action)” (International Journal of Molecular Sciences, 2024)
Several values for one entry are separate records, joined by “and”; a condition that tells them apart may be missing. Identical values can stand only once.

Assays:
[1] = target: hH4R; design: method as in PMID 36370200; settings: cited from earlier work
[2] = test system: SH-SY5Y cells; assay: cell number / growth, image cytometry; assay type: cell-based; settings: Homo sapiens
Experimental: (§1) To evaluate the growth dynamics of SH-SY5Y cells in the presence of AR71, neuroblastoma cells were treated with increasing concentrations (0.39–25 µM) of the compound tested for 24 or 72 h. Using image cytometry, we calculated the DNA content index as a 2N/4N DNA ratio to analyse the cell cycle distribution after 24 and 72 h of incubation with AR71.
SH-SY5Y cells were initially seeded in 96-well plates at a density of 5000 cells per well in 120 μL of medium. After 24 h, the cells were exposed to different concentrations of AR71 for either 24 or 72 h. […] Subsequently, images of 16 fields per well were captured using the ArrayScan VTI HCS Reader from Thermo Fisher Scientific, Inc. (Thermo Fisher Scientific, Waltham, MA, USA), which was equipped with a 5× objective. The cell number was calculated as the sum of the Hoechst-33342-stained cell nuclei using Cell Cycle Bioapplication V3 software and expressed as a per cent of control. […] In the next step, a series of detailed images were acquired using the ArrayScan VTI HCS Reader equipped with a 10× objective to collect at least 500 nuclei/cells per replicate. The DNA cell content of single cells was analysed based on Hoechst-33342 fluorescence intensity of their nuclei using Cell Cycle Bioapplication V3 software and presented as the DNA 2N/4N ratio. […]

[3] = test system: SH-SY5Y cells; assay: DNA content / cell cycle (2N/4N DNA ratio), image cytometry; assay type: cell-based, human
Experimental: as §1
SH-SY5Y cells were initially seeded in 96-well plates at a density of 5000 cells per well in 120 μL of medium. After 24 h, the cells were exposed to different concentrations of AR71 for either 24 or 72 h. Following a wash with PBS, the cells were fixed with 4% formaldehyde for 20 min and then stained with 1 µg/mL of Hoechst 33342 for 30 min at room temperature. Subsequently, images of 16 fields per well were captured using the ArrayScan VTI HCS Reader from Thermo Fisher Scientific, Inc. (Thermo Fisher Scientific, Waltham, MA, USA), which was equipped with a 5× objective. The cell number was calculated as the sum of the Hoechst-33342-stained cell nuclei using Cell Cycle Bioapplication V3 software and expressed as a per cent of control. The remaining adherent cells in culture wells reflected the cytotoxic potential of the tested compound. In the next step, a series of detailed images were acquired using the ArrayScan VTI HCS Reader equipped with a 10× objective to collect at least 500 nuclei/cells per replicate. The DNA cell content of single cells was analysed based on Hoechst-33342 fluorescence intensity of their nuclei using Cell Cycle Bioapplication V3 software and presented as the DNA 2N/4N ratio. All experiments were performed three times, each in four replicates. IC50 values were calculated with a non-linear fit to a sigmoidal dose–response curve (log compound vs. normalised response) using GraphPad Prism 6.07. The results are presented as mean ± SEM from at least three independent experiments. Statistical significance was evaluated using one-way ANOVA followed by Dunnett’s test. * p < 0.05, ** p < 0.01, and *** p < 0.001 indicate significant differences compared with the control counterparts.

[4] = test system: CCI-exposed mice; assay: cold plate test in CCI neuropathic pain model; assay type: in vivo, mouse
Experimental: The effects of a single intraperitoneal (i.p.) injection of AR71 at doses of 5, 10, and 20 mg/kg on mechanical (von Frey test) and thermal (cold plate and tail flick tests) stimulus were evaluated on day 14 following sciatic nerve injury (Figure 15). There were seven to eight animals per group. All these tests were performed in three time series after the administration of the compound. In the case of the von Frey test—after 30, 90, and 180 min; the cold plate test—after 35, 95, and 185 min; and the tail flick test—after 40, 100, and 190 min.
The mice were randomly divided into four experimental groups. […] All data from behavioural tests were analysed using a one-way ANOVA with Bonferroni’s multiple comparison post hoc test. […]
The cold plate test (performed by the Cold/Hot Plate Analgesia Meter, Columbus Instruments, N. Hague Ave, Columbus, OH, USA) was used to assess sensitivity to noxious thermal stimuli. […] The mice were placed on a cold plate, and the time it took to lift the injured paw was recorded.

COc1cc(/C=C/C(=O)c2ccc(OCCCN3CCCCC3)cc2)cc(OC)c1OC [AR71, (E)-3-(3,4,5-trimethoxyphenyl)-1-(4-(3-(piperidin-1-yl)propoxy)phenyl)prop-2-en-1-one]
Ki [1]: 2.81 µM and > 2.5 µM | IC50 ([2]; 24 h incubation): 8.46 µM | IC50 ([2]; 72 h incubation): 3.19 µM | effect on cell cycle ([3]; 3.125–25 µM, 24 and 72 h): cell cycle arrest at the G2/M phase (4N) | IC50 for 2N/4N DNA ratio ([3]; 24 h incubation): 18.8 µM | IC50 for 2N/4N DNA ratio ([3]; 72 h incubation): 4.54 µM | effect in cold plate test vs control ([4]; 5, 10 and 20 mg/kg i.p., 35 min (5 mg/kg p < 0.05; 10 and 20 mg/kg p < 0.001)): Analgesic effects | effect in cold plate test vs control ([4]; 95 and 185 min after injection, 10 and 20 mg/kg i.p.): only the two higher doses were effective
